Paper PMC9090415, “Discovery of small molecule inhibitors of Plasmodium falciparum apicoplast DNA polymerase” (Journal of Enzyme Inhibition and Medicinal Chemistry, 2022)

Molecular target: T1, bacteriophage T4 DNA polymerase (Enterobacteria phage T4, UniProt P04415)
T1 construct: made in house
T1 sequence (P04415 1-898): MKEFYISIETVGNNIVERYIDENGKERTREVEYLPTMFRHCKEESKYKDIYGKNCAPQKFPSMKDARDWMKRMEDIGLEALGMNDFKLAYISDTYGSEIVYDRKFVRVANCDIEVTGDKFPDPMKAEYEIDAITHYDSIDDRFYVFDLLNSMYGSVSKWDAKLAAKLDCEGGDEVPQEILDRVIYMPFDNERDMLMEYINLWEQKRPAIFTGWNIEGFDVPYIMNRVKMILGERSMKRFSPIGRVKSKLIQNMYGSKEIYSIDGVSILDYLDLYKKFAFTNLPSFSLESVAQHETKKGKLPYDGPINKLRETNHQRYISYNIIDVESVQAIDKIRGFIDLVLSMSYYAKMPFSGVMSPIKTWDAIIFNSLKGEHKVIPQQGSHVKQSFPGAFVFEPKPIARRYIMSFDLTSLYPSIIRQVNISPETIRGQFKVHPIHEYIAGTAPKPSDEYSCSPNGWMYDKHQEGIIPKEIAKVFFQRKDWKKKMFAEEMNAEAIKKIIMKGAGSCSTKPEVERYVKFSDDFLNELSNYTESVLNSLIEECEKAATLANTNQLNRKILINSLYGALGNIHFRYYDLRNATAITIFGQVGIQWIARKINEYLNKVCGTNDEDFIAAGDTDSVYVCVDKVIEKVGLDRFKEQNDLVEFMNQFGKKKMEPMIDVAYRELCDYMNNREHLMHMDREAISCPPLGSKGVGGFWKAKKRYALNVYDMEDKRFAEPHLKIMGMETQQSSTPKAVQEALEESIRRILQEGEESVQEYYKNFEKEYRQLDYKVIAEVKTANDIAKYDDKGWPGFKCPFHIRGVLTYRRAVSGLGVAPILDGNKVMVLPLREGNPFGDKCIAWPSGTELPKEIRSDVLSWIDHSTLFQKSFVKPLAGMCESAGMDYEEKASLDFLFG
Test: Counter-screen against bacteriophage T4 DNA polymerase
Type: biochemical
Settings: for % inhibition T4 10' 2.5 / % inhibition T4 10' 5 / % inhibition T4 10' 10 / % inhibition T4 10' 20 / % inhibition T4 10' 40 / % inhibition T4 10' 80: read at 10'
Procedure, shortened: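 Purified T4 DNA polymerase, a B-family enzyme, served as the counter-screen enzyme. Compounds were tested in dose-response format and IC50 values were derived.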

## Cc1nc(/N=N/c2ccc(C(=O)[O-])cc2)c(COP(=O)([O-])[O-])c(C=O)c1O.[Na+].[Na+].[Na+] [KU0261395]
DRC-2, concentration 2.5
  % inhibition T4 10': -16%
  % inhibition T4 40': -20%
  % inhibition T4 90': -20%
DRC-2, concentration 5
  % inhibition T4 10': -9%
  % inhibition T4 40': -16%
  % inhibition T4 90': -18%
DRC-2, concentration 40
  % inhibition T4 10': -10%
  % inhibition T4 90': -11%
  % inhibition T4 180': -11%
DRC-2, concentration 80
  % inhibition T4 10': -18%
  % inhibition T4 40': -18%
  % inhibition T4 180': -10%
DRC-2, concentration 10
  % inhibition T4 90': -9%
DRC-2, concentration 20
  % inhibition T4 180': -9%

## COc1ccc(-c2cc3nc4c(c(=O)n3[nH]2)CCN(C(=O)CCc2ccccc2)C4)cc1 [Molecule 17, COc1ccc(cc1)c1[nH]n2c(c1)nc1c(c2=O)CCN(C1)C(=O)CCc1ccccc1]
DRC-2, concentration 2.5
  % inhibition T4 10': -22%
  % inhibition T4 180': -13%
DRC-2, concentration 5
  % inhibition T4 10': -46%
  % inhibition T4 40': -38%
DRC-2, concentration 10
  % inhibition T4 10': -38%
  % inhibition T4 40': -30%
  % inhibition T4 90': -25%
  % inhibition T4 180': -22%
DRC-2, concentration 20
  % inhibition T4 10': -44%
  % inhibition T4 180': -23%
DRC-2, concentration 40
  % inhibition T4 10': -44%
  % inhibition T4 90': -30%
  % inhibition T4 180': -25%
DRC-2, concentration 80
  % inhibition T4 90': -46%

## COc1ccc(CNC(=O)Cn2nc3c(c2NC(=O)Cc2cccs2)CSC3)cc1 [Molecule 55, COc1ccc(cc1)CNC(=O)Cn1nc2c(c1NC(=O)Cc1cccs1)CSC2]
DRC-2, concentration 5
  % inhibition T4 10': 18%
DRC-2, concentration 10
  % inhibition T4 10': 26%
  % inhibition T4 40': 26%
  % inhibition T4 180': 18%
DRC-2, concentration 20
  % inhibition T4 10': 26%
  % inhibition T4 40': 28%
  % inhibition T4 90': 26%
DRC-2, concentration 80
  % inhibition T4 40': 38%
  % inhibition T4 90': 38%
DRC-2, concentration 40
  % inhibition T4 180': 28%

## CC(=O)Nc1cc(C(=O)c2cccs2)nn(-c2ccc(Cl)cc2)c1=O [KU0267905]
DRC-1, concentration 2.5
  % inhibition T4 10' 2.5: -2.1822%
DRC-1, concentration 5
  % inhibition T4 10' 5: -1.511%
DRC-1, concentration 10
  % inhibition T4 10' 10: 8.968%
DRC-1, concentration 20
  % inhibition T4 10' 20: 21.6077%
DRC-1, concentration 40
  % inhibition T4 10' 40: 20.7445%
DRC-1, concentration 80
  % inhibition T4 10' 80: 21.8297%
DRC-1, read at 70', concentration 2.5
  % inhibition T4 70' 2.5: -0.6527%
DRC-1, read at 70', concentration 5
  % inhibition T4 70' 5: -1.806%
DRC-1, read at 70', concentration 10
  % inhibition T4 70' 10: 6.193%
DRC-1, read at 70', concentration 20
  % inhibition T4 70' 20: 12.7493%
DRC-1, read at 70', concentration 40
  % inhibition T4 70' 40: 13.4043%
DRC-1, read at 70', concentration 80
  % inhibition T4 70' 80: 12.69%
DRC-1, read at 130', concentration 2.5
  % inhibition T4 130' 2.5: -1.3658%
DRC-1, read at 130', concentration 5
  % inhibition T4 130' 5: -4.349%
DRC-1, read at 130', concentration 10
  % inhibition T4 130' 10: 2.501%
DRC-1, read at 130', concentration 20
  % inhibition T4 130' 20: 8.205%
DRC-1, read at 130', concentration 40
  % inhibition T4 130' 40: 8.984%
DRC-1, read at 130', concentration 80
  % inhibition T4 130' 80: 8.594%
DRC-2, concentration 2.5
  % inhibition T4 10' 2.5: 8%
DRC-2, concentration 5
  % inhibition T4 10' 5: 8.43%
DRC-2, concentration 10
  % inhibition T4 10' 10: 8%
DRC-2, concentration 20
  % inhibition T4 10' 20: 1.18%
DRC-2, concentration 40
  % inhibition T4 10' 40: 7%
DRC-2, concentration 80
  % inhibition T4 10' 80: 2.64%
DRC-2, read at 40', concentration 2.5
  % inhibition T4 40' 2.5: 7%
DRC-2, read at 40', concentration 5
  % inhibition T4 40' 5: 7.5%
DRC-2, read at 40', concentration 10
  % inhibition T4 40' 10: 6.35%
DRC-2, read at 40', concentration 20
  % inhibition T4 40' 20: 0.171%
DRC-2, read at 40', concentration 40
  % inhibition T4 40' 40: 4%
DRC-2, read at 40', concentration 80
  % inhibition T4 40' 80: 0.303%
DRC-2, read at 90', concentration 2.5
  % inhibition T4 90' 2.5: 5%
DRC-2, read at 90', concentration 5
  % inhibition T4 90' 5: 5%
DRC-2, read at 90', concentration 10
  % inhibition T4 90' 10: 4%
DRC-2, read at 90', concentration 20
  % inhibition T4 90' 20: -2%
DRC-2, read at 90', concentration 40
  % inhibition T4 90' 40: 2.26%
DRC-2, read at 90', concentration 80
  % inhibition T4 90' 80: -0.743%
DRC-2, read at 180', concentration 2.5
  % inhibition T4 180' 2.5: 0.767%
DRC-2, read at 180', concentration 5
  % inhibition T4 180' 5: 0.673%
DRC-2, read at 180', concentration 10
  % inhibition T4 180' 10: 0.174%
DRC-2, read at 180', concentration 20
  % inhibition T4 180' 20: -8%
DRC-2, read at 180', concentration 40
  % inhibition T4 180' 40: -2.82%
DRC-2, read at 180', concentration 80
  % inhibition T4 180' 80: -3.56%

## O=C1N=C(Nc2cccc(Cl)c2Cl)S/C1=C\c1ccco1 [Molecule 3, O=C1N=C(S/C/1=C\c1ccco1)Nc1cccc(c1Cl)Cl]
DRC-2, concentration 2.5
  % inhibition T4 10': 26%
  % inhibition T4 40': 26%
DRC-2, concentration 5
  % inhibition T4 10': 29%
  % inhibition T4 40': 29%
  % inhibition T4 90': 27%
DRC-2, concentration 20
  % inhibition T4 10': 30%
  % inhibition T4 40': 30%
  % inhibition T4 90': 30%
  % inhibition T4 180': 27%
DRC-2, concentration 40
  % inhibition T4 10': 29%
  % inhibition T4 40': 29%
  % inhibition T4 90': 30%
  % inhibition T4 180': 30%
DRC-2, concentration 80
  % inhibition T4 10': 13%
  % inhibition T4 40': 13%
DRC-2, concentration 10
  % inhibition T4 180': 29%

## O=C(NC(C(Cl)Cl)S(=O)(=O)c1ccccc1)c1ccccc1 (stereo not drawn) [KU0045239]
DRC-2, concentration 10
  % inhibition T4 10': -19%
  % inhibition T4 40': -19%
  % inhibition T4 180': -18%
DRC-2, concentration 5
  % inhibition T4 40': -21%
  % inhibition T4 90': -17%
  % inhibition T4 180': -21%
DRC-2, concentration 20
  % inhibition T4 40': -26%
  % inhibition T4 90': -18%
  % inhibition T4 180': -17%
DRC-2, concentration 40
  % inhibition T4 40': -26%
  % inhibition T4 90': -18%
DRC-2, concentration 2.5
  % inhibition T4 90': -26%

## CC(C)(C)OC(=O)COc1ccc2cc(-c3ccccc3)c(=O)oc2c1 [Molecule 81, O=C(OC(C)(C)C)COc1ccc2c(c1)oc(=O)c(c2)c1ccccc1]
DRC-2, concentration 10
  % inhibition T4 10': 13%
  % inhibition T4 40': 10%
  % inhibition T4 90': 10%
  % inhibition T4 180': 7%
DRC-2, concentration 40
  % inhibition T4 10': 7%
DRC-2, concentration 2.5
  % inhibition T4 40': 16%
  % inhibition T4 90': 16%
  % inhibition T4 180': 13%
DRC-2, concentration 5
  % inhibition T4 40': 13%
  % inhibition T4 90': 13%
DRC-2, concentration 20
  % inhibition T4 40': 6%
  % inhibition T4 90': 6%
DRC-2, concentration 80
  % inhibition T4 40': 6%

## O=C(Cc1cc(=O)[nH]c(SCc2ccccc2)n1)Nc1ccc2c(c1)OCO2 [Molecule 46, O=C(Cc1cc(=O)[nH]c(n1)SCc1ccccc1)Nc1ccc2c(c1)OCO2]
DRC-2, concentration 2.5
  % inhibition T4 10': -13%
  % inhibition T4 40': -13%
DRC-2, concentration 40
  % inhibition T4 10': 9%
  % inhibition T4 40': 9%
  % inhibition T4 90': 9%
  % inhibition T4 180': 4%
DRC-2, concentration 80
  % inhibition T4 10': 6%
  % inhibition T4 40': 6%
DRC-2, concentration 10
  % inhibition T4 90': 4%

## O=C(Nc1ccc2c(c1)Cc1cc(NC(=O)c3ccco3)ccc1-2)c1ccco1 [KU0038977]
DRC-2, concentration 80
  % inhibition T4 10': 20%
  % inhibition T4 90': 35%
DRC-2, concentration 20
  % inhibition T4 40': 25%
  % inhibition T4 90': 25%
  % inhibition T4 180': 20%
DRC-2, concentration 40
  % inhibition T4 40': 35%
  % inhibition T4 90': 35%

## Cc1ccc(NC(=O)C2CCN(C(=O)c3cc4ccsc4[nH]3)CC2)c(Br)c1 [Molecule 14, O=C(C1CCN(CC1)C(=O)c1cc2c([nH]1)scc2)Nc1ccc(cc1Br)C]
DRC-2, concentration 20
  % inhibition T4 10': 5%
  % inhibition T4 40': 5%
DRC-2, concentration 40
  % inhibition T4 10': 10%
  % inhibition T4 40': 8%
  % inhibition T4 90': 6%
DRC-2, concentration 80
  % inhibition T4 10': 10%
  % inhibition T4 40': 10%
  % inhibition T4 90': 8%

## O=C(Cn1ccc2c(=O)[nH]ccc21)Nc1cc(F)ccc1F [Molecule 42, O=C(Cn1ccc2c1cc[nH]c2=O)Nc1cc(F)ccc1F]
DRC-2, concentration 2.5
  % inhibition T4 10': -1.82%
  % inhibition T4 180': -1.82%
DRC-2, concentration 5
  % inhibition T4 10': -13%
DRC-2, concentration 20
  % inhibition T4 10': -4%
  % inhibition T4 40': -4%
DRC-2, concentration 80
  % inhibition T4 10': -13%
  % inhibition T4 40': -13%
  % inhibition T4 180': -13%
